# Reference: patent US20040138198A1, “Vasectomy procedure and related kit” (priority 2001, published 2004)
# Legend:
# vasa deferentia = conditions: rat, in vivo
# Protocol: A dose ranging non-GLP study was conducted in rats to determine the local toxic effect of diltiazem on vasa deferentia.
# sperm in vas = experiment: non-GLP study, in vivo effect on motility and viability of sperm in vas; conditions: injection, 0.2 mg/kg body weight; saline injected controls 35%
# Excerpt: In another non-GLP study, the in vivo effect of diltiazem on motility and viability of sperm in vas was observed.
smiles,measurement,setting,value
COc1ccc([C@@H]2Sc3ccccc3N(CCN(C)C)C(=O)[C@@H]2OC(C)=O)cc1 [diltiazem],changes in the histology of the vas,vasa deferentia; 0.2 mg/kg,did not cause any changes in the histology of the vas
same,effect on the vas,vasa deferentia; 2 mg/kg,no effect on the vas
same,mortality of rats,vasa deferentia; 50 mg/kg,no mortality
same,percentage of non-viable sperm,sperm in vas,92%
